{"source": "patent US20110300110A1", "about": "“ENAMINOCARBONYL COMPOUND/BENEFICIAL ORGANISM COMBINATIONS” (BAYER CROPSCIENCE AG, priority 2008, published 2011)", "type_in_all_cases": "in vivo", "key": {"[1]": {"tested_on": "Macrolophus caliginosus nymphs", "assay": "Residual test with nymphs of Macrolophus caliginosus on tomato leaves", "method": "(§1) Foliar treatment is carried out using compound (I-5) in a concentration of 100 g of active compound per hectare.\n(§2) Drench treatment is carried out using compound (I-5) in a concentration of 15 mg of active compound per plant.\n(§3) Foliar treatment with Karate Zeon CS100 as toxic control was carried out in a concentration of 12.5 g of active compound per hectare. The active compound in its respective formulation is brought to the required concentration by dilution with water.\n(§4) Tomato plants cultivated in a greenhouse are treated with the respective active compound solutions. 1, 8, 16 and 23 days after the application, leaves are plucked from the test plants (5 samples per plot). The individual leaves are then mounted in test cages. 10 Macrolophus caliginosus nymphs are added to each cage. The test cages are placed under controlled conditions in a climatized chamber. The kill of the insects/larvae is determined after 24, 48 and 72 hours of exposure."}, "adult Orius laevigatus": {"tested_on": "adult Orius laevigatus", "assay": "Residual test with adult Orius laevigatus on bell-pepper leaves", "method": "as §1, §2, §3\nas §4, with “Bell-pepper” for “Tomato”, “adult Orius laevigatus” for “Macrolophus caliginosus nymphs”, “insects” for “insects/larvae”"}, "[2]": {"tested_on": "Aphidoletes aphidimyza larvae", "assay": "Larvae treatment Aphidoletes: kill of beneficial species larvae on Savoy cabbage", "method": "Foliar treatment is carried out using compound (I-5) in a concentration of 75 g of active compound per hectare.\nDrench treatment is carried out using compound (I-5) in a concentration of 10 mg of active compound per plant.\nFoliar treatment with Karate Zeon CS100 as toxic control was carried out in a concentration of 12.5 g of active compound per hectare.\nBeneficial species: Aphidoletes aphidimyza larvae Pest: Myzus persicae\nEach experiment is carried out in 3 repetitions.\nPer plot, 6 Savoy cabbage plants are placed into a planting-out tray and infested with Myzus persicae. About 1 week later, with a well-established Myzus population, the Aphidoletes aphidimyza are added. The application is carried after about 2 weeks once sufficient L2 stage Aphidoletes larvae are present (at least 20 larvae per tray).\nIn preparation for the application, the plants are reduced to 4 healthy green leaves.\nImmediately prior to the application, the Myzus population and the number of Aphidoletes larvae are rated. For the application, all 6 plants of a plot are placed onto the turntable, and the amount of spray liquor for 0.666 m^2 is applied while turning slowly. After the application, the trays are placed into the standard cages.\nFor each plant, the number of Myzus persicae is estimated at the beginning at the appropriate points in time, and the larvae are counted accurately."}, "[3]": {"conditions": "leaves plucked 1 day after application, drench 15 mg a.i./plant"}, "[4]": {"conditions": "leaves plucked 1 day after application, foliar: (I-5) 100 g a.i./ha, Karate Zeon CS100 12.5 g a.i./ha"}, "[5]": {"conditions": "leaves plucked 8 days after application, drench 15 mg a.i./plant"}, "[6]": {"conditions": "leaves plucked 8 days after application, foliar: (I-5) 100 g a.i./ha, Karate Zeon CS100 12.5 g a.i./ha"}, "[7]": {"conditions": "leaves plucked 16 days after application, drench 15 mg a.i./plant"}, "[8]": {"conditions": "leaves plucked 16 days after application, foliar: (I-5) 100 g a.i./ha, Karate Zeon CS100 12.5 g a.i./ha"}, "[9]": {"conditions": "leaves plucked 23 days after application, drench 15 mg a.i./plant"}, "[10]": {"conditions": "leaves plucked 23 days after application, foliar: (I-5) 100 g a.i./ha, Karate Zeon CS100 12.5 g a.i./ha"}}, "data": [{"smiles": "O=C1C=C(N(Cc2ccc(Cl)nc2)CC(F)F)CO1", "note": "[compound (I-5), 4-{[(6-chloropyrid-3-yl)methyl](2,2-difluoroethyl)amino}furan-2(5H)-one]", "values": [{"measurement": "Activity against nymphs of Macrolophus caliginosus on tomato [% kill according to Schneider-Orelli]", "setting": "[1]; [3]", "result": 0, "unit": "%"}, {"measurement": "Activity against nymphs of Macrolophus caliginosus on tomato [% kill according to Schneider-Orelli]", "setting": "[1]; [4]", "result": 52.2, "unit": "%"}, {"measurement": "Activity against nymphs of Macrolophus caliginosus on tomato [% kill according to Schneider-Orelli]", "setting": "[1]; [5]", "result": 65.4, "unit": "%"}, {"measurement": "Activity against nymphs of Macrolophus caliginosus on tomato [% kill according to Schneider-Orelli]", "setting": "[1]; [6]", "result": 72.2, "unit": "%"}, {"measurement": "Activity against nymphs of Macrolophus caliginosus on tomato [% kill according to Schneider-Orelli]", "setting": "[1]; [7]", "result": 35.7, "unit": "%"}, {"measurement": "Activity against nymphs of Macrolophus caliginosus on tomato [% kill according to Schneider-Orelli]", "setting": "[1]; [8]", "result": 21.7, "unit": "%"}, {"measurement": "Activity against nymphs of Macrolophus caliginosus on tomato [% kill according to Schneider-Orelli]", "setting": "[1]; [9]", "result": 23.6, "unit": "%"}, {"measurement": "Activity against nymphs of Macrolophus caliginosus on tomato [% kill according to Schneider-Orelli]", "setting": "[1]; [10]", "result": 41.8, "unit": "%"}, {"measurement": "Activity against adult Orius leavigatus on bell-pepper [% kill calculated according to Schneider-Orelli]", "setting": "adult Orius laevigatus; [3]", "result": 36.3, "unit": "%"}, {"measurement": "Activity against adult Orius leavigatus on bell-pepper [% kill calculated according to Schneider-Orelli]", "setting": "adult Orius laevigatus; [4]", "result": 100, "unit": "%"}, {"measurement": "Activity against adult Orius leavigatus on bell-pepper [% kill calculated according to Schneider-Orelli]", "setting": "adult Orius laevigatus; [5]", "result": 86.7, "unit": "%"}, {"measurement": "Activity against adult Orius leavigatus on bell-pepper [% kill calculated according to Schneider-Orelli]", "setting": "adult Orius laevigatus; [6]", "result": 98.1, "unit": "%"}, {"measurement": "Activity against adult Orius leavigatus on bell-pepper [% kill calculated according to Schneider-Orelli]", "setting": "adult Orius laevigatus; [7]", "result": 72.3, "unit": "%"}, {"measurement": "Activity against adult Orius leavigatus on bell-pepper [% kill calculated according to Schneider-Orelli]", "setting": "adult Orius laevigatus; [8]", "result": 100, "unit": "%"}, {"measurement": "Activity against adult Orius leavigatus on bell-pepper [% kill calculated according to Schneider-Orelli]", "setting": "adult Orius laevigatus; [9]", "result": 92.1, "unit": "%"}, {"measurement": "Activity against adult Orius leavigatus on bell-pepper [% kill calculated according to Schneider-Orelli]", "setting": "adult Orius laevigatus; [10]", "result": 100, "unit": "%"}, {"measurement": "kill of Aphidoteles aphidimyza larvae [% Abbott]", "setting": "[2]; 0 days after application, drench 10 mg a.i./plant", "result": 0, "unit": "%"}, {"measurement": "kill of Aphidoteles aphidimyza larvae [% Abbott]", "setting": "[2]; 0 days after application, foliar: (I-5) 75 g a.i./ha, Karate Zeon CS100 12.5 g a.i./ha", "result": 0, "unit": "%"}, {"measurement": "kill of Aphidoteles aphidimyza larvae [% Abbott]", "setting": "[2]; 1 day after application, drench 10 mg a.i./plant", "result": 3.2, "unit": "%"}, {"measurement": "kill of Aphidoteles aphidimyza larvae [% Abbott]", "setting": "[2]; 1 day after application, foliar: (I-5) 75 g a.i./ha, Karate Zeon CS100 12.5 g a.i./ha", "result": 10.2, "unit": "%"}, {"measurement": "kill of Aphidoteles aphidimyza larvae [% Abbott]", "setting": "[2]; 3 days after application, drench 10 mg a.i./plant", "result": 4.3, "unit": "%"}, {"measurement": "kill of Aphidoteles aphidimyza larvae [% Abbott]", "setting": "[2]; 3 days after application, foliar: (I-5) 75 g a.i./ha, Karate Zeon CS100 12.5 g a.i./ha", "result": 10.5, "unit": "%"}, {"measurement": "kill of Aphidoteles aphidimyza larvae [% Abbott]", "setting": "[2]; 5 days after application, drench 10 mg a.i./plant", "result": 7.8, "unit": "%"}, {"measurement": "kill of Aphidoteles aphidimyza larvae [% Abbott]", "setting": "[2]; 5 days after application, foliar: (I-5) 75 g a.i./ha, Karate Zeon CS100 12.5 g a.i./ha", "result": 15.2, "unit": "%"}]}]}
